Data as given in patent US10022449B2, “Synergistic antiviral composition and use thereof” (priority 2009, dated 2018).

How the values were obtained:
[1] = test system: influenza A/PR/8/34 virus; assay: Survival of mice infected with lethal influenza virus, treatment starting 48 hours post infection (Example 1); format: in vivo, C57B16 mice; details: lethal dose (10x LD50) i.n.; treatment from 48 hours post infection, twice daily; iota-carrageenan 1200 μg/ml 25 μl per nostril i.n.; TAMIFLU 10 mg/kg/d per os; 10 mice per group
Method: (§1) 40 C57B16 mice were infected with a lethal dose (10× LD50) of influenza A/PR/8/34 virus by intranasal instillation (i.n.) without anaesthesia. After infection of the nasal cavity the virus spreads in the respiratory tract and finally causes a lethal pneumonia in mice. This model mimics the natural influenza infection in humans via the respiratory tract that sometimes causes severe conditions.
The mice were divided into four groups of 10 mice each. 48 hours post infection the mice were treated twice daily i.n. without anaesthesia, wherein the first group was treated with a placebo (25 μl 0.5% aqueous NaCl-solution per nostril) as a negative control and the second group was treated solely with 25 μl per nostril of a aqueous iota-carrageenan polymer solution at a concentration of 1200 μg/ml. Group three and four were fed with 10 mg/kg/d of TAMIFLU® per os, wherein the third group additionally received the iota-carrageenan polymer intranasally at the above concentration whereas the fourth group received the intranasal placebo treatment in addition to the oral Tamiflu® administration. […] The survival of the animals was determined daily as a surrogate parameter for health. The difference in the number of surviving animals was evaluated using a log-rank test.

[2] = test system: influenza A/PR/8/34 virus; assay: Mean weight of mice infected with lethal influenza virus, treatment starting 24 hours post infection (Example 2); format: in vivo, C57B16 mice; details: treatment from 24 hours post infection; single actives: first seven days; combination: from day 3 onwards (pmax<0,004), t-test
[3] = test system: influenza A/PR/8/34 virus; assay: Survival of influenza-infected mice, iota-carrageenan and oseltamivir, treatment starting 48 hours post infection (Example 3); format: in vivo; details: treatment from 48 hours post infection, twice daily; oseltamivir 5 mg/kg/d orally; iota-carrageenan 1200 μg/ml i.n. (120 μg per day); 10 mice per group
Excerpt: as §1
The infection of the mice was done as described in Example 1. The mice were divided into four groups of 10 mice each. 48 hours post infection the mice were treated twice daily i.n. without anaesthesia, wherein the first group was treated with a placebo (25 μl 0.5% aqueous NaCl-solution per nostril) as a negative control, the second group was treated orally with oseltamivir at a dosage of 5 mg/kg/d, the third group was treated with 25 μl per nostril of an aqueous iota-carrageenan polymer solution at a concentration of 1200 μg/ml, and the fourth group was treated with a combination of iota-carrageenan and oseltamivir twice daily, wherein oseltamivir was administered orally at a dosage of 5 mg/kg/d and the total amount of iota-carrageenan administered intranasally was 100 μl corresponding to an amount of 120 μg per day. The survival of the animals was determined daily as a surrogate parameter for health. The difference in the number of surviving animals was evaluated using a log-rank test.

influenza virus = details: cited from earlier work; for reduction of median time until detection of symptom alleviation: individuals of the YOPI group (young, old, pregnant, immunocompromised); for reduction of median time until detectable symptom alleviation: non-risk adults group (not YOPI)
[4] = test system: influenza A/PR/8/34 virus; assay: Survival of influenza-infected mice, iota-/kappa-carrageenan and zanamivir, treatment starting 48 hours post infection (Example 4); format: in vivo; details: treatment from 48 hours post infection; zanamivir 0.5 mg/kg/d intranasally; carrageenan polymer 120 μg per day intranasally; 20 mice per group
[5] = cited from earlier work

| Compound | survival of mice (survivors out of 10) [1] | weight loss compared to placebo treatment [2] | survival of mice (survivors out of 10) [3] | reduction of median time until detection of symptom alleviation (influenza virus) [days] | reduction of median time until detectable symptom alleviation (influenza virus) [days] | survival of mice (survivors out of 20) [4] | Tmax ([5]; in vivo) [h] | absolute bioavailability ([5]; orally administered, on average) |
| --- | --- | --- | --- | --- | --- | --- | --- | --- |
| CCOC(=O)C1=C[C@@H](OC(CC)CC)[C@H](NC(C)=O)[C@@H](N)C1 [TAMIFLU®, oseltamivir phosphate] | 3/10 | failed to provide a significant benefit with regard to weight loss |  |  |  |  |  |  |
| CCOC(=O)C1=C[C@@H](OC(CC)CC)[C@H](NC(C)=O)[C@@H](N)C1 [oseltamivir] |  |  | 3/10 | 0.74 | 0.55 |  |  |  |
| CC(=O)N[C@H]1[C@H]([C@H](O)[C@H](O)CO)OC(C(=O)O)=C[C@@H]1N=C(N)N [zanamivir] |  |  |  | 0.98 | 0.57 | 7/20 | 1 to 2 | about 2% |
